# ChEMBL document CHEMBL2440076, “New triarylpyrazoles as broad-spectrum anticancer agents: design, synthesis, and biological evaluation” (Eur J Med Chem, 2013)
# Tests used:
# Format in all cases: functional
# LOX IMVI = assay: Growth inhibition of human LOXIMVI cells assessed as cell growth at 5X10'-5 M after 48 hrs by sulforhodamine B assay; settings: read-out: Activity
# NCI-H322M [1] = assay: Growth inhibition of human NCI-H322M cells assessed as cell growth at 5X10'-5 M after 48 hrs by sulforhodamine B assay; settings: read-out: Activity
# NCI-H226 [2] = assay: Growth inhibition of human NCI-H226 cells assessed as cell growth at 5X10'-5 M after 48 hrs by sulforhodamine B assay; settings: NCI-H226, 48 h, read-out: Activity
# HOP-92 = assay: Growth inhibition of human HOP92 cells assessed as cell growth at 5X10'-5 M after 48 hrs by sulforhodamine B assay; settings: HOP-92, 48 h, read-out: Activity
# SR [3] = assay: Growth inhibition of human SR cells assessed as cell growth at 5X10'-5 M after 48 hrs by sulforhodamine B assay; settings: read-out: Activity
# CCRF-CEM = assay: Growth inhibition of human CCRF-CEM cells assessed as cell growth at 5X10'-5 M after 48 hrs by sulforhodamine B assay; settings: read-out: Activity
# U-251 = assay: Growth inhibition of human U251 cells assessed as cell growth at 5X10'-6 M after 48 hrs by sulforhodamine B assay; settings: U-251, 48 h, read-out: Activity
# COLO 205 = assay: Growth inhibition of human COLO205 cells assessed as cell growth at 5X10'-9 M after 48 hrs by sulforhodamine B assay; settings: COLO 205, 48 h, read-out: Activity
# A549 [4] = assay: Growth inhibition of human A549/ATCC cells assessed as cell growth at 5X10'-9 M after 48 hrs by sulforhodamine B assay; settings: A549, 48 h, read-out: Activity
# K562 [5] = assay: Growth inhibition of human K562 cells assessed as cell growth at 5X10'-9 M after 48 hrs by sulforhodamine B assay; settings: K562, 48 h, read-out: Activity
# SW-620 [6] = assay: Growth inhibition of human SW620 cells assessed as cell growth at 5X10'-6 M after 48 hrs by sulforhodamine B assay; settings: SW-620, 48 h, read-out: Activity
# KM12 = assay: Growth inhibition of human KM12 cells assessed as cell growth at 5X10'-6 M after 48 hrs by sulforhodamine B assay; settings: KM12, 48 h, read-out: Activity
# NCI-H322M [7] = assay: Growth inhibition of human NCI-H322M cells assessed as cell growth at 5X10'-6 M after 48 hrs by sulforhodamine B assay; settings: read-out: Activity
# NCI-H226 [8] = assay: Growth inhibition of human NCI-H226 cells assessed as cell growth at 5X10'-6 M after 48 hrs by sulforhodamine B assay; settings: NCI-H226, 48 h, read-out: Activity
# A549 [9] = assay: Growth inhibition of human A549/ATCC cells assessed as cell growth at 5X10'-6 M after 48 hrs by sulforhodamine B assay; settings: A549, 48 h, read-out: Activity
# BT-549 = assay: Growth inhibition of human BT549 cells assessed as cell growth at 5X10'-7 M after 48 hrs by sulforhodamine B assay; settings: BT-549, 48 h, read-out: Activity
# DU-145 = assay: Growth inhibition of human DU145 cells assessed as cell growth at 5X10'-7 M after 48 hrs by sulforhodamine B assay; settings: DU-145, 48 h, read-out: Activity
# UO-31 = assay: Growth inhibition of human UO31 cells assessed as cell growth at 5X10'-7 M after 48 hrs by sulforhodamine B assay; settings: UO-31, 48 h, read-out: Activity
# TK-10 [10] = assay: Growth inhibition of human TK10 cells assessed as cell growth at 5X10'-7 M after 48 hrs by sulforhodamine B assay; settings: TK-10, 48 h, read-out: Activity
# 786-0 = assay: Growth inhibition of human 786-0 cells assessed as cell growth at 5X10'-7 M after 48 hrs by sulforhodamine B assay; settings: 786-0, 48 h, read-out: Activity
# OVCAR-5 = assay: Growth inhibition of human OVCAR5 cells assessed as cell growth at 5X10'-7 M after 48 hrs by sulforhodamine B assay; settings: OVCAR-5, 48 h, read-out: Activity
# UACC-257 = assay: Growth inhibition of human UACC257 cells assessed as cell growth at 5X10'-7 M after 48 hrs by sulforhodamine B assay; settings: UACC-257, 48 h, read-out: Activity
# SF-295 = assay: Growth inhibition of human SF295 cells assessed as cell growth at 5X10'-7 M after 48 hrs by sulforhodamine B assay; settings: SF-295, 48 h, read-out: Activity
# SR [11] = assay: Growth inhibition of human SR cells assessed as cell growth at 5X10'-7 M after 48 hrs by sulforhodamine B assay; settings: read-out: Activity
# HL-60(TB) = assay: Growth inhibition of human HL-60(TB) cells assessed as cell growth at 5X10'-7 M after 48 hrs by sulforhodamine B assay; settings: HL-60, 48 h, read-out: Activity
# MCF7 [12] = assay: Growth inhibition of human MCF7 cells assessed as cell growth at 5X10'-8 M after 48 hrs by sulforhodamine B assay; settings: MCF7, 48 h, read-out: Activity
# TK-10 [13] = assay: Growth inhibition of human TK10 cells assessed as cell growth at 5X10'-8 M after 48 hrs by sulforhodamine B assay; settings: TK-10, 48 h, read-out: Activity
# UACC-62 = assay: Growth inhibition of human UACC62 cells assessed as cell growth at 5X10'-8 M after 48 hrs by sulforhodamine B assay; settings: UACC-62, 48 h, read-out: Activity
# MDA-MB-468 = assay: Growth inhibition of human MDA-MB-468 cells assessed as cell growth at 5X10'-5 M after 48 hrs by sulforhodamine B assay; settings: MDA-MB-468, 48 h, read-out: Activity
# MCF7 [14] = assay: Growth inhibition of human MCF7 cells assessed as cell growth at 5X10'-5 M after 48 hrs by sulforhodamine B assay; settings: MCF7, 48 h, read-out: Activity
# SN12C = assay: Growth inhibition of human SN12C cells assessed as cell growth at 5X10'-5 M after 48 hrs by sulforhodamine B assay; settings: read-out: Activity
# RXF 393 = assay: Growth inhibition of human RXF393 cells assessed as cell growth at 5X10'-5 M after 48 hrs by sulforhodamine B assay; settings: RXF 393, 48 h, read-out: Activity
# [15] = Growth inhibition of human HCC2998 cells assessed as cell growth at 5X10'-8 M after 48 hrs by sulforhodamine B assay; settings: HCC 2998, 48 h, read-out: Activity
# NCI-H322M [16] = assay: Growth inhibition of human NCI-H322M cells assessed as cell growth at 5X10'-8 M after 48 hrs by sulforhodamine B assay; settings: read-out: Activity
# K562 [17] = assay: Growth inhibition of human K562 cells assessed as cell growth at 5X10'-8 M after 48 hrs by sulforhodamine B assay; settings: K562, 48 h, read-out: Activity
# OVCAR-3 = assay: Growth inhibition of human OVCAR3 cells assessed as cell growth at 5X10'-9 M after 48 hrs by sulforhodamine B assay; settings: OVCAR-3, 48 h, read-out: Activity
# SW-620 [18] = assay: Growth inhibition of human SW620 cells assessed as cell growth at 5X10'-9 M after 48 hrs by sulforhodamine B assay; settings: SW-620, 48 h, read-out: Activity
Compound,growth at 50 µM (LOX IMVI) [%],growth at 50 µM (NCI-H322M [1]) [%],growth at 50 µM (NCI-H226 [2]) [%],growth at 50 µM (HOP-92) [%],growth at 50 µM (SR [3]) [%],growth at 50 µM (CCRF-CEM) [%],growth at 5 µM (U-251) [%],growth at 0.005 µM (COLO 205) [%],growth at 0.005 µM (A549 [4]) [%],growth at 0.005 µM (K562 [5]) [%],growth at 5 µM (SW-620 [6]) [%],growth at 5 µM (KM12) [%],growth at 5 µM (NCI-H322M [7]) [%],growth at 5 µM (NCI-H226 [8]) [%],growth at 5 µM (A549 [9]) [%],growth at 0.5 µM (BT-549) [%],growth at 0.5 µM (DU-145) [%],growth at 0.5 µM (UO-31) [%],growth at 0.5 µM (TK-10 [10]) [%],growth at 0.5 µM (786-0) [%],further results
COc1cc(-c2nn(-c3cccc(NC(=O)Nc4ccc(Cl)c(Cl)c4)c3)cc2-c2ccncc2)ccc1Cl,-45,6,4,-39,-26,2,-32,109,98,103,11,-24,15,8,3,97,90,65,83,89,growth at 0.5 µM (OVCAR-5): 89%; growth at 0.5 µM (UACC-257): 83%; growth at 0.5 µM (SF-295): 62%; growth at 0.5 µM (SR [11]): 78%; growth at 0.5 µM (HL-60(TB)): 98%; growth at 0.05 µM (MCF7 [12]): 92%; growth at 0.05 µM (TK-10 [13]): 103%; growth at 0.05 µM (UACC-62): 94%; growth at 50 µM (MDA-MB-468): -31%; growth at 50 µM (MCF7 [14]): 3%; growth at 50 µM (SN12C): 10%; growth at 50 µM (RXF 393): -43%; growth at 0.05 µM [15]: 100%; growth at 0.05 µM (NCI-H322M [16]): 102%; growth at 0.05 µM (K562 [17]): 103%; growth at 0.005 µM (OVCAR-3): 104%; growth at 0.005 µM (SW-620 [18]): 97%
COc1cc(-c2nn(-c3cccc(NC(=O)c4cccc(C(F)(F)F)c4)c3)cc2-c2ccncc2)ccc1Cl,5,46,-7,-22,-2,4,14,108,102,94,30,14,52,18,19,102,92,62,108,101,growth at 0.5 µM (OVCAR-5): 85%; growth at 0.5 µM (UACC-257): 87%; growth at 0.5 µM (SF-295): 83%; growth at 0.5 µM (SR [11]): 65%; growth at 0.5 µM (HL-60(TB)): 103%; growth at 0.05 µM (MCF7 [12]): 90%; growth at 0.05 µM (TK-10 [13]): 97%; growth at 0.05 µM (UACC-62): 96%; growth at 50 µM (MDA-MB-468): -32%; growth at 50 µM (MCF7 [14]): 9%; growth at 50 µM (SN12C): 24%; growth at 50 µM (RXF 393): -2%; growth at 0.05 µM [15]: 100%; growth at 0.05 µM (NCI-H322M [16]): 88%; growth at 0.05 µM (K562 [17]): 94%; growth at 0.005 µM (OVCAR-3): 105%; growth at 0.005 µM (SW-620 [18]): 99%
